Reference: ChEMBL document CHEMBL1201862, “PubChem BioAssay data set” (2004)
Active and inactive are the calls of the source.

Assays:
[1] = target: T1, Sentrin-specific protease 8 (Homo sapiens, UniProt Q96LD8); format: functional
T1 sequence (Q96LD8 whole entry): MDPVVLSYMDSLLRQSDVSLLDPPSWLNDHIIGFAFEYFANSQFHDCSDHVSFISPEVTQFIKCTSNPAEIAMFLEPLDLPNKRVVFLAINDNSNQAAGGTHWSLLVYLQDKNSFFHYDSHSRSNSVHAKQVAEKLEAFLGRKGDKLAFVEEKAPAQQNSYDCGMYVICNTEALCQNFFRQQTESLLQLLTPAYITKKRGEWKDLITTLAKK

[2] = target: T2, Tyrosyl-DNA phosphodiesterase 2 (Homo sapiens, UniProt O95551); assay: potency against TDP2 phosphodiesterase activity – biochemical, epi absorbance, IC50, dose response (AID 743297)
T2 sequence (O95551 whole entry): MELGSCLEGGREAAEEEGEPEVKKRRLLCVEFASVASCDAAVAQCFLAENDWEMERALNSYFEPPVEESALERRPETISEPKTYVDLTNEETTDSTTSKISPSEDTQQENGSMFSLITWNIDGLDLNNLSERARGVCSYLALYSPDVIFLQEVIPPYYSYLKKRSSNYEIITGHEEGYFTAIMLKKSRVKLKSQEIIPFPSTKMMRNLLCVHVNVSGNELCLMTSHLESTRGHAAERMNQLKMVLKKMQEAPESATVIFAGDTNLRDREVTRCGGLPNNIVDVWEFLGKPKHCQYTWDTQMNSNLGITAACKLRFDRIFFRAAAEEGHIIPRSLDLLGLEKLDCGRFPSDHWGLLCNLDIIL

[3] = target: T3, RNA-binding protein pos-1 (Caenorhabditis elegans, UniProt G5EF15); assay: disruptors of C. elegans POS-1 RNA interaction – biochemical, fluorescence polarization, dose response (AID 1964);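 note: purified POS-1 fused to maltose binding protein made in E. coli; potency of compounds blocking POS-1 binding to fluorescent RNA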
T3 sequence (G5EF15 whole entry): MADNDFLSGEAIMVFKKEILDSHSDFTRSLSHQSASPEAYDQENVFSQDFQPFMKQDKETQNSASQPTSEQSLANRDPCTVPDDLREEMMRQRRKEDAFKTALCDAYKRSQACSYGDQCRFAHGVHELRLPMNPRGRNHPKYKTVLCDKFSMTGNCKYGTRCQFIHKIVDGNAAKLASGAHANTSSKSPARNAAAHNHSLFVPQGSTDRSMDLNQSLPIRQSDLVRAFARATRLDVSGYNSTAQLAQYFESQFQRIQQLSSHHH

[4] = target: T1, Sentrin-specific protease 8; format: functional; remark: listed apart in the source
[5] = target: T4, Replicative DNA helicase DnaB (Mycobacterium tuberculosis, UniProt P9WMR3); assay: DnaB intein splicing inhibitors, dose response, biochemical, cell-free fluorescence (AID 449749); format: functional
T4 sequence (P9WMR3 whole entry): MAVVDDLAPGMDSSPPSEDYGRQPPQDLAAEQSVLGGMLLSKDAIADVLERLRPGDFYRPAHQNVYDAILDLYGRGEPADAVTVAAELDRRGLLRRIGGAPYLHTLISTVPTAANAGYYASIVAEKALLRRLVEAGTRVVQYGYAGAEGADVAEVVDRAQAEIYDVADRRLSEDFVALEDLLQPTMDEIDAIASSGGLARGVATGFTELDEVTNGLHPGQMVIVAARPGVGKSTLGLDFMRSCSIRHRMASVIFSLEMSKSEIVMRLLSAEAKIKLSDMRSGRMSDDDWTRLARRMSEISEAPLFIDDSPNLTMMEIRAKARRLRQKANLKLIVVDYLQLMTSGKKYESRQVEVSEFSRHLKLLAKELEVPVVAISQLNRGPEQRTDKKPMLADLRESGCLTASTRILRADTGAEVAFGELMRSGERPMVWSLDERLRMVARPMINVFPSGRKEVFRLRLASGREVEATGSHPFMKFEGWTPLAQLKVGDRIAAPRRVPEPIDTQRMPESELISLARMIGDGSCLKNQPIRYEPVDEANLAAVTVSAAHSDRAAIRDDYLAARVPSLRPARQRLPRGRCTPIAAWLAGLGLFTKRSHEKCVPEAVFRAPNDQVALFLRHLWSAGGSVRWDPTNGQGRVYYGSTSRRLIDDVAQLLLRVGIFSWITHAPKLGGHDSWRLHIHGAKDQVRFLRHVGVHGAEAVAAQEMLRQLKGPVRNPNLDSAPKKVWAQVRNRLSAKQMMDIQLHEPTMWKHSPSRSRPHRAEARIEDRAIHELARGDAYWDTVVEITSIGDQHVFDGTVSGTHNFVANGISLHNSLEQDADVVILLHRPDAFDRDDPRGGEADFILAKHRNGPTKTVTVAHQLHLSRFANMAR

Protein RecA = target: T5, Protein RecA (Mycobacterium tuberculosis, UniProt P9WHJ3); assay: Fluorescence Cell-Free Homogeneous Dose Retest to Identify Inhibitors of RecA-Intein Splicing Activity. [Related pubchem assays (depositor defined):AID2097, AID2223, AID489010, AID492950]; format: functional
T5 sequence (P9WHJ3 whole entry): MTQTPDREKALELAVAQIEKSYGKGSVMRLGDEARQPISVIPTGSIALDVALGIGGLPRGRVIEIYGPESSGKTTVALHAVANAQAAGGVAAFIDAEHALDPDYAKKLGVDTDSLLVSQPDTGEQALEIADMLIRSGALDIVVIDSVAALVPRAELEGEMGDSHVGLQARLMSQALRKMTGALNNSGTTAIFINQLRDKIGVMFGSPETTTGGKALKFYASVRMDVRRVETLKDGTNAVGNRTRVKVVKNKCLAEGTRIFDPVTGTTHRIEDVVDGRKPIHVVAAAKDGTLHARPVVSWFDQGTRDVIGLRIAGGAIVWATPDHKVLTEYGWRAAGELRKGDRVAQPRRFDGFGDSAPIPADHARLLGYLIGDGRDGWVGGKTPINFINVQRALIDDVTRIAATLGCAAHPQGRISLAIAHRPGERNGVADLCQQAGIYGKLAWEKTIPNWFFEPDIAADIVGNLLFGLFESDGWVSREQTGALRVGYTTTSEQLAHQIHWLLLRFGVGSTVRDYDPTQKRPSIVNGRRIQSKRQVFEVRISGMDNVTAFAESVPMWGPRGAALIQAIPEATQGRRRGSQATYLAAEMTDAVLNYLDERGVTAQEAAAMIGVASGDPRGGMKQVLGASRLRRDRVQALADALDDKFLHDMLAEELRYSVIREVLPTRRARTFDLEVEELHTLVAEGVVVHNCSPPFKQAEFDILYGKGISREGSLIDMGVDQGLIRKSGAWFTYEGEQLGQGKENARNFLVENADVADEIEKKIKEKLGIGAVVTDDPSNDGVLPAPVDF

[6] = inhibition of ARNT PAS-B/TACC3 complex formation – biochemical, AlphaScreen, cherry-picked samples, confirmation (AID 651703); format: functional, Homo sapiens;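 note: His-tagged ARNT PAS-B domain paired with GST-TACC3 E629A dimer coactivator fragment; potency of inhibitors that break up the complex and lower AlphaScreen signal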
[7] = target: T6, Zinc finger protein mex-5 (Caenorhabditis elegans, UniProt Q9XUB2); assay: potency of MEX-5 RNA-binding blockers – biochemical, C. elegans, fluorescence polarization, dose response (AID 1960)
T6 sequence (Q9XUB2 whole entry): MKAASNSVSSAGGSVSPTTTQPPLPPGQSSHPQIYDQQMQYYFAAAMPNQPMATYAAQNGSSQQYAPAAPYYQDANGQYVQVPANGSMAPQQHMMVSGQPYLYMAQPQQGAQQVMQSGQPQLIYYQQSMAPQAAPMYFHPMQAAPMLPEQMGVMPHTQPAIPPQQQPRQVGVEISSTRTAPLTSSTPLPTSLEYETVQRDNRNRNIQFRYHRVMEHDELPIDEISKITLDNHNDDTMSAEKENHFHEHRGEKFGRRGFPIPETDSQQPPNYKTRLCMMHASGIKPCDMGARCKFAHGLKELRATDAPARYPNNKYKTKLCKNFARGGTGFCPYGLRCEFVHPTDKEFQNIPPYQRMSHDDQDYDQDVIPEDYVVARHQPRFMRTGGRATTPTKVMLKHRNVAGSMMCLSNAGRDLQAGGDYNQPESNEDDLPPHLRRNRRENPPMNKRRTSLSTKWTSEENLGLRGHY

[8] = mouse fibroblast viability loss – cell-based, cherry-pick samples, set 2, cytotoxicity control for T. cruzi growth inhibitor project, dose response (AID 651817); format: functional; conditions: NIH3T3
[9] = off-target signal loss in HeLa-CEM21 co-culture – HeLa F-luc CTL cells, cherry-picked, counter-screen for HIV-1 Env fusion inhibitor project, dose response (AID 652040); format: functional, cell-based;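 note: potency for signal decrease marking cytotoxic or nonspecific inhibition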
[10] = target: T7, Corticotropin-releasing factor receptor 2/Corticotropin-releasing factor-binding protein (Homo sapiens, UniProt P24387+Q13324); assay: Dose Response confirmation of uHTS hits for small molecule antagonists of the CRF-binding protein and CRF-R2 receptor complex.; format: functional; conditions: read-out: IC50_Mean
T7 sequence (Q13324 whole entry): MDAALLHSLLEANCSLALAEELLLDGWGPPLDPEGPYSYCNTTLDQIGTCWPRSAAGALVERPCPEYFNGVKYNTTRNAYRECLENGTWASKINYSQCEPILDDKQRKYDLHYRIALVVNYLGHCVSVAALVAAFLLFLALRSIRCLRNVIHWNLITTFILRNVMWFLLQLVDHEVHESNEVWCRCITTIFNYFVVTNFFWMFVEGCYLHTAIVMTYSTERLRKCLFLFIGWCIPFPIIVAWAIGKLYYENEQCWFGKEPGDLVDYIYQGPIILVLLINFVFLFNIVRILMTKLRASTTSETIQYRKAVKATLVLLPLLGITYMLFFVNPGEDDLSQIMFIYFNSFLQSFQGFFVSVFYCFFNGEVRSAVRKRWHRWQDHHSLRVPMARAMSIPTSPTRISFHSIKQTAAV
T7 sequence (P24387 whole entry): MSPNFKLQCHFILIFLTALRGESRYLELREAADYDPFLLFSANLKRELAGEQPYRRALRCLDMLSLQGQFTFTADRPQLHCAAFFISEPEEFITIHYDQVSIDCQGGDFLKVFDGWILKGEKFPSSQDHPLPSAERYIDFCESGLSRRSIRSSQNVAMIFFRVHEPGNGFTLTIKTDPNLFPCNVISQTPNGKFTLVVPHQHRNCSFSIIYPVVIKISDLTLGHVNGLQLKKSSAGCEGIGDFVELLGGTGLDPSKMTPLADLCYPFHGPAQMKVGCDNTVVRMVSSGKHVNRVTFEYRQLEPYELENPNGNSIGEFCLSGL

cells [11] = format: functional, cell-based; conditions: HEK-CNG
[12] = HIV-1 AD8 envelope cell-cell fusion blockers – cherry-pick, dose response (AID 652062); format: functional, cell-based;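 note: luciferase signal from cell-cell fusion driven by HIV-1 clade B AD8 Env; potency is for inhibitors of fusion seen as a drop in luminescence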
Cytochrome P450 2C9 = Cytochrome P450 2C9 (Homo sapiens, UniProt P11712)
Galanin receptor type 3 = Galanin receptor type 3 (Homo sapiens, UniProt O60755); assay: Fluorescence-based cell-based primary high throughput dose response assay to identify antagonists of the Galanin Receptor 3 (GalR3).; format: functional
[13] = target: T7, Corticotropin-releasing factor receptor 2/Corticotropin-releasing factor-binding protein; assay: activators of CRF receptor 2 with binding protein – uHTS hits, confirmation (AID 602473); format: functional; conditions: read-out: EC50_Mean
[14] = viability loss in HEK293T cells – cell-based, cherry-picks, cytotoxicity control for HIV Vif inhibitor project, dose response (AID 652208); format: functional
[15] = test system: Streptococcus sp. 'group A'; assay: Streptococcus pyogenes SK(-)GAS viability under kanamycin – luminescence, BacTiterGlo, confirmation, counter-screen for streptokinase expression inhibitor project, dose response (AID 1900); format: functional, organism-based
Streptococcus = assay: GAS UMAA2166 growth inhibition – luminescence, BacTiterGlo, counter-screen for streptokinase expression inhibitor project, dose response (AID 1915); format: functional, organism-based;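 note: potency for reduction of bacterial viability or growth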
[16] = Luminescence Cell-Based Dose Retest to Confirm Inhibitors of Cancer Stem Cells. [Related pubchem assays (depositor defined):AID2717, AID2721]; format: functional; conditions: Homo sapiens
[17] = target: T8, Trace amine-associated receptor 1 (Homo sapiens, UniProt Q96RJ0); assay: Fluorescence-based cell-based high throughput dose response assay to identify agonists of the human trace amine associated receptor 1 (TAAR1).; format: functional
T8 sequence (Q96RJ0 whole entry): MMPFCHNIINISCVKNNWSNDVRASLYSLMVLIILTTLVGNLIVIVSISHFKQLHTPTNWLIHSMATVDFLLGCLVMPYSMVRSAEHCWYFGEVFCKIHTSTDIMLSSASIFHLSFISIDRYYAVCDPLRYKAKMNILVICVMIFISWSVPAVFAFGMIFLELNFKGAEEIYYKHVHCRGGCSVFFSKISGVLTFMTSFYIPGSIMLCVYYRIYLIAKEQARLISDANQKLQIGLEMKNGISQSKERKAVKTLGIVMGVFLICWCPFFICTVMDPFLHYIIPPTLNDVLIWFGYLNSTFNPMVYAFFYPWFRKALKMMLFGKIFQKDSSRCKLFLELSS

[18] = target: T8, Trace amine-associated receptor 1; assay: Counterscreen for agonists of the human trace amine associated receptor 1 (hTAAR1): Fluorescence-based cell-based high throughput dose response assay to identify hTAAR1 agonist that also desensitize TAAR1 receptor response.; format: functional
cells [19] = format: functional, cell-based
cells [20] = format: functional, cell-based; remark: listed apart in the source

Sequence of Galanin receptor type 3 (O60755 whole entry): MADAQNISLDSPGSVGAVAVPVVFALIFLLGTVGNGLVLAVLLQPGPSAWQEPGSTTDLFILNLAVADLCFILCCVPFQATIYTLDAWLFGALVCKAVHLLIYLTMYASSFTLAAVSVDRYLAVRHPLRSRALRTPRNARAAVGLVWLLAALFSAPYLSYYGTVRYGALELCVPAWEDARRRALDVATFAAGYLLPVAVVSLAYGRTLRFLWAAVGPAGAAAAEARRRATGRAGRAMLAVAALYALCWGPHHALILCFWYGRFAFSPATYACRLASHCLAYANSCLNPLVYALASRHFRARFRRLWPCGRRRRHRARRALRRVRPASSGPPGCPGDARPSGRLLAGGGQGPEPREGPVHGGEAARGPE
Sequence of Cytochrome P450 2C9 (P11712 whole entry): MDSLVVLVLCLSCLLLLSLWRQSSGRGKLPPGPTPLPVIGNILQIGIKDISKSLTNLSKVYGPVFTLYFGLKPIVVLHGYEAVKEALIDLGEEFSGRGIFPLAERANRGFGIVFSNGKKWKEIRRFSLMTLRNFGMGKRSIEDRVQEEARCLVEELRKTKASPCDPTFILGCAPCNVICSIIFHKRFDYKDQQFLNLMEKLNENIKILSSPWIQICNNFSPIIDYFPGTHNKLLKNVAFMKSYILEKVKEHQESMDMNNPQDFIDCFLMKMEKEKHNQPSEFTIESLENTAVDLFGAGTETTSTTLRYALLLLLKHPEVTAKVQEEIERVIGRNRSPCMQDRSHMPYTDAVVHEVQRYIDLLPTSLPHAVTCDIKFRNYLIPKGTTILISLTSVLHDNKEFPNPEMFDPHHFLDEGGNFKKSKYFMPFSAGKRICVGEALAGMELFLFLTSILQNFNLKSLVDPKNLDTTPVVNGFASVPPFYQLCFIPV

## Cc1n[nH]c(O)c1C(c1ccc(-c2ccccc2C(=O)O)o1)c1c(C)n[nH]c1O
[1]
  IC50: 16.4 µM (active)
[2]
  IC50: > 128 µM (inactive)
[3]
  EC50: 148 µM (active)
[4]
  IC50: > 100 µM (inactive)
[5]
  AC50: 335 nM (active)
Protein RecA
  EC50: 256 nM (active)
[6]
  AC50: 82.1 µM (active)
[7]
  EC50: 37 µM (active)

## COc1ccc(CN(C)C[C@H]2Oc3c(NC(=O)Nc4ccc(C(F)(F)F)cc4)cccc3C(=O)N([C@@H](C)CO)C[C@@H]2C)cc1
[8]
  AC50: 14.4 µM (active)

## Cc1nn(C)c(Cl)c1NC(=O)OCc1ccc(Cl)cc1Cl
[9]
  AC50: > 70 µM (inactive)
[10]
  IC50: > 47.1 µM (inactive)
Cells [11]
  EC50: > 29.9 µM (inactive)
[12]
  AC50: 22.5 µM (active)
Cytochrome P450 2C9
  AC50: inconclusive
Galanin receptor type 3
  IC50: 2.13 µM (active)
[13]
  EC50: > 53 µM (inactive)

## COc1cc(NC(=O)c2ccc(-c3csc(C)n3)cc2)c(OC)cc1Cl
[14]
  AC50: 38.2 µM (active)

## Cc1nn2c(COc3ccc(NC(=O)c4ccccc4Cl)cc3)nnc2c2ccccc12
[15]
  EC50: 2.06 µM (active)
Streptococcus
  EC50: 1.36 µM (active)
[14]
  AC50: > 52 µM (inactive)
[16]
  AC50: 2.59 µM (active)

## C[C@H](CO)N1C[C@H](C)[C@H](CN(C)Cc2ccc(Cl)c(Cl)c2)Oc2c(NC(=O)c3ccncc3)cccc2C1=O
[8]
  AC50: 39 µM (inactive)

## O=C(CSC1=Nc2ccc(Cl)cc2S(=O)(=O)N1)NCCc1ccccc1
[17]
  EC50: 295 nM (active)
[18]
  IC50: 2.41 µM (active)
Cells [19]
  IC50: > 29.9 µM (inactive)
Cells [20]
  EC50: > 29.9 µM (inactive)
